Experimental data published in the NIST ThermoML archive (doi:10.1016/j.tca.2010.04.013).
Numbers after ± are expanded uncertainties.

Assays:
[1] = relative permittivity at various frequencies (dimensionless); xn = mol fraction of the nth substance listed; settings: 303.15 K, 101.3 kPa, Liquid, Frequency=1 MHz, capacitance measurements at 1 MHz
[2] = relative permittivity at various frequencies (dimensionless); settings: 303.15 K; 101.3 kPa; Liquid; Frequency=1 MHz; capacitance measurements at 1 MHz

CN(C)C=O [dimethylformamide] + OCCO
Settings	relative permittivity
[1], x2 = 0	36.55 ± 0.22

CNC=O [N-methylformamide] + CCO
[1]
Settings	relative permittivity
x2 = 0	169.76 ± 1
x2 = 0.101	144.63 ± 0.98
x2 = 0.202	123.72 ± 0.84
x2 = 0.302	104.17 ± 0.73
x2 = 0.402	85.99 ± 0.61
x2 = 0.502	71.06 ± 0.51
x2 = 0.602	57.8 ± 0.42
x2 = 0.702	46.91 ± 0.35
x2 = 0.802	37.6 ± 0.29
x2 = 0.901	29.54 ± 0.23

CN(C)C=O [dimethylformamide] + CCO
[1]
Settings	relative permittivity
x2 = 0	36.55 ± 0.22
x2 = 0.087	35.57 ± 0.21
x2 = 0.169	34.72 ± 0.21
x2 = 0.249	33.96 ± 0.21
x2 = 0.325	32.98 ± 0.2
x2 = 0.399	32.16 ± 0.19
x2 = 0.469	31.39 ± 0.19
x2 = 0.537	30.57 ± 0.19
x2 = 0.603	29.63 ± 0.18
x2 = 0.666	28.78 ± 0.18
x2 = 0.726	27.8 ± 0.17
x2 = 0.785	27.05 ± 0.16
x2 = 0.841	26.22 ± 0.16
x2 = 0.896	25.39 ± 0.16
x2 = 0.949	24.65 ± 0.15

CNC=O [N-methylformamide]
Settings	relative permittivity
[2]	169.76 ± 1

NC=O [formamide]
Settings	relative permittivity
[2]	106.14 ± 0.64

CN(C)C=O [dimethylformamide]
Settings	relative permittivity
[2]	36.55 ± 0.22

NC=O [formamide] + OCCO
[1]
Settings	relative permittivity
x2 = 0	106.14 ± 0.64
x2 = 0.048	103.75 ± 0.63
x2 = 0.099	100.44 ± 0.62
x2 = 0.151	96.49 ± 0.6
x2 = 0.206	92.28 ± 0.57
x2 = 0.263	88.7 ± 0.55
x2 = 0.322	84.61 ± 0.53
x2 = 0.384	80.3 ± 0.5
x2 = 0.449	75.79 ± 0.48
x2 = 0.517	70.99 ± 0.45
x2 = 0.588	66.04 ± 0.42
x2 = 0.662	61.55 ± 0.39
x2 = 0.74	56.35 ± 0.36
x2 = 0.823	51.05 ± 0.33
x2 = 0.909	46.12 ± 0.3

CNC=O [N-methylformamide] + OCCO
[1]
Settings	relative permittivity
x2 = 0	169.76 ± 1
x2 = 0.105	139.93 ± 0.97
x2 = 0.209	118.26 ± 0.8
x2 = 0.312	102.12 ± 0.68
x2 = 0.413	87.49 ± 0.58
x2 = 0.514	76.46 ± 0.5
x2 = 0.613	67.14 ± 0.44
x2 = 0.711	59.59 ± 0.39
x2 = 0.809	52.6 ± 0.34
x2 = 0.905	46.26 ± 0.31

NC=O [formamide] + CCO
[1]
Settings	relative permittivity
x2 = 0	106.14 ± 0.64
x2 = 0.046	100.82 ± 0.65
x2 = 0.095	95.19 ± 0.62
x2 = 0.146	89.27 ± 0.59
x2 = 0.199	82.58 ± 0.55
x2 = 0.254	76.43 ± 0.51
x2 = 0.312	70.03 ± 0.47
x2 = 0.374	64.23 ± 0.43
x2 = 0.438	57.92 ± 0.39
x2 = 0.506	51.93 ± 0.35
x2 = 0.577	46.28 ± 0.31
x2 = 0.652	41.17 ± 0.28
x2 = 0.732	36.15 ± 0.25
x2 = 0.816	31.37 ± 0.21
x2 = 0.905	27.6 ± 0.18
